# Test results: the kinase profiling compilation of Christmann-Franck et al. (2016)
# Key:
# Experiment in all cases: radiometric filter-binding kinase assay, Kinase HotSpot
# Conditions in all cases: compound 0.5 µM; ATP 10 µM
# [1] = biological target: AURKA (human) (UniProt O14965)
# [2] = biological target: AURKC (human) (UniProt Q9UQB9)
# [3] = biological target: CAMK2A (human) (UniProt Q9UQM7)
# [4] = biological target: CDC42BPA (human) (UniProt Q5VT25)
# [5] = biological target: CDK2 CCNE1 (human) (UniProt P24941+P24864)
# [6] = biological target: CDK4 CCND3 (human) (UniProt P30281+P11802)
# [7] = biological target: CDK5 CDK5R1 p25 (human) (UniProt Q00535+Q15078)
# [8] = biological target: CSK (human) (UniProt P41240)
# [9] = biological target: CSNK1D (human) (UniProt P48730)
# [10] = biological target: CSNK1G3 (human) (UniProt Q9Y6M4)
# [11] = biological target: DSTYK (human) (UniProt Q6XUX3)
# [12] = biological target: EPHB1 (human) (UniProt P54762)
# Chain of EPHB1 (human) (P54762 whole entry, looked up): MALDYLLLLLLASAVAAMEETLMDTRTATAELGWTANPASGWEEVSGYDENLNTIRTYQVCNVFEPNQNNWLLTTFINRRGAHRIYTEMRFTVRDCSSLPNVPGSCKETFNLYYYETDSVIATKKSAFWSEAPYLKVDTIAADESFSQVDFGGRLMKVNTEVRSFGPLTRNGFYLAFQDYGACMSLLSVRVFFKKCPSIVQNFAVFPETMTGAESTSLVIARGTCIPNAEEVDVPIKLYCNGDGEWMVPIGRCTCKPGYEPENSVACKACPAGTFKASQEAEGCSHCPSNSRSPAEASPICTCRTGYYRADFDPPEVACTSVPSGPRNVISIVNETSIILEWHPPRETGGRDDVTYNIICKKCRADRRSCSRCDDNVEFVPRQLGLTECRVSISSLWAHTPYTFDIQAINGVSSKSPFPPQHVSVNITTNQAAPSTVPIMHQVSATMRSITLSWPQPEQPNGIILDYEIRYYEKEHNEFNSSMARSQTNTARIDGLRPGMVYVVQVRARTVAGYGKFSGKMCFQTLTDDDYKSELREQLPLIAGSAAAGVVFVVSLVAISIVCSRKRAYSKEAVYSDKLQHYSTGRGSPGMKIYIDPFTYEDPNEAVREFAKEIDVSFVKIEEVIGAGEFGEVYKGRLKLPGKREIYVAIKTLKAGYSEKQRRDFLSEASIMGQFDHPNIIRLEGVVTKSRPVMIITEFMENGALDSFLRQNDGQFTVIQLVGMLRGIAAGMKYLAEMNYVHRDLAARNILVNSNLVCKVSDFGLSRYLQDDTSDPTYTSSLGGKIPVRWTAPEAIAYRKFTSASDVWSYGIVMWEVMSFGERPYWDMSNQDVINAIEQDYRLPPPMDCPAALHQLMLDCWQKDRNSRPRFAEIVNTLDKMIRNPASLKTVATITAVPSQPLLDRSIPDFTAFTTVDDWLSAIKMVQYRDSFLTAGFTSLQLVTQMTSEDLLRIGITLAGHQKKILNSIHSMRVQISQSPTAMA
# [13] = biological target: EPHB2 (human) (UniProt P29323)
# [14] = biological target: FLT3 (human) (UniProt P36888)
# [15] = biological target: GSG2 (human) (UniProt Q8TF76)
# [16] = biological target: HIPK4 (human) (UniProt Q8NE63)
# [17] = biological target: INSR (human) (UniProt P06213)
# [18] = biological target: ITK (human) (UniProt Q08881)
# [19] = biological target: JAK3 JH1 JH2 (human) (UniProt P52333)
# [20] = biological target: LIMK1 (human) (UniProt P53667)
# [21] = biological target: LRRK2 (human) (UniProt Q5S007)
# Chain of LRRK2 (human) (Q5S007 whole entry, looked up): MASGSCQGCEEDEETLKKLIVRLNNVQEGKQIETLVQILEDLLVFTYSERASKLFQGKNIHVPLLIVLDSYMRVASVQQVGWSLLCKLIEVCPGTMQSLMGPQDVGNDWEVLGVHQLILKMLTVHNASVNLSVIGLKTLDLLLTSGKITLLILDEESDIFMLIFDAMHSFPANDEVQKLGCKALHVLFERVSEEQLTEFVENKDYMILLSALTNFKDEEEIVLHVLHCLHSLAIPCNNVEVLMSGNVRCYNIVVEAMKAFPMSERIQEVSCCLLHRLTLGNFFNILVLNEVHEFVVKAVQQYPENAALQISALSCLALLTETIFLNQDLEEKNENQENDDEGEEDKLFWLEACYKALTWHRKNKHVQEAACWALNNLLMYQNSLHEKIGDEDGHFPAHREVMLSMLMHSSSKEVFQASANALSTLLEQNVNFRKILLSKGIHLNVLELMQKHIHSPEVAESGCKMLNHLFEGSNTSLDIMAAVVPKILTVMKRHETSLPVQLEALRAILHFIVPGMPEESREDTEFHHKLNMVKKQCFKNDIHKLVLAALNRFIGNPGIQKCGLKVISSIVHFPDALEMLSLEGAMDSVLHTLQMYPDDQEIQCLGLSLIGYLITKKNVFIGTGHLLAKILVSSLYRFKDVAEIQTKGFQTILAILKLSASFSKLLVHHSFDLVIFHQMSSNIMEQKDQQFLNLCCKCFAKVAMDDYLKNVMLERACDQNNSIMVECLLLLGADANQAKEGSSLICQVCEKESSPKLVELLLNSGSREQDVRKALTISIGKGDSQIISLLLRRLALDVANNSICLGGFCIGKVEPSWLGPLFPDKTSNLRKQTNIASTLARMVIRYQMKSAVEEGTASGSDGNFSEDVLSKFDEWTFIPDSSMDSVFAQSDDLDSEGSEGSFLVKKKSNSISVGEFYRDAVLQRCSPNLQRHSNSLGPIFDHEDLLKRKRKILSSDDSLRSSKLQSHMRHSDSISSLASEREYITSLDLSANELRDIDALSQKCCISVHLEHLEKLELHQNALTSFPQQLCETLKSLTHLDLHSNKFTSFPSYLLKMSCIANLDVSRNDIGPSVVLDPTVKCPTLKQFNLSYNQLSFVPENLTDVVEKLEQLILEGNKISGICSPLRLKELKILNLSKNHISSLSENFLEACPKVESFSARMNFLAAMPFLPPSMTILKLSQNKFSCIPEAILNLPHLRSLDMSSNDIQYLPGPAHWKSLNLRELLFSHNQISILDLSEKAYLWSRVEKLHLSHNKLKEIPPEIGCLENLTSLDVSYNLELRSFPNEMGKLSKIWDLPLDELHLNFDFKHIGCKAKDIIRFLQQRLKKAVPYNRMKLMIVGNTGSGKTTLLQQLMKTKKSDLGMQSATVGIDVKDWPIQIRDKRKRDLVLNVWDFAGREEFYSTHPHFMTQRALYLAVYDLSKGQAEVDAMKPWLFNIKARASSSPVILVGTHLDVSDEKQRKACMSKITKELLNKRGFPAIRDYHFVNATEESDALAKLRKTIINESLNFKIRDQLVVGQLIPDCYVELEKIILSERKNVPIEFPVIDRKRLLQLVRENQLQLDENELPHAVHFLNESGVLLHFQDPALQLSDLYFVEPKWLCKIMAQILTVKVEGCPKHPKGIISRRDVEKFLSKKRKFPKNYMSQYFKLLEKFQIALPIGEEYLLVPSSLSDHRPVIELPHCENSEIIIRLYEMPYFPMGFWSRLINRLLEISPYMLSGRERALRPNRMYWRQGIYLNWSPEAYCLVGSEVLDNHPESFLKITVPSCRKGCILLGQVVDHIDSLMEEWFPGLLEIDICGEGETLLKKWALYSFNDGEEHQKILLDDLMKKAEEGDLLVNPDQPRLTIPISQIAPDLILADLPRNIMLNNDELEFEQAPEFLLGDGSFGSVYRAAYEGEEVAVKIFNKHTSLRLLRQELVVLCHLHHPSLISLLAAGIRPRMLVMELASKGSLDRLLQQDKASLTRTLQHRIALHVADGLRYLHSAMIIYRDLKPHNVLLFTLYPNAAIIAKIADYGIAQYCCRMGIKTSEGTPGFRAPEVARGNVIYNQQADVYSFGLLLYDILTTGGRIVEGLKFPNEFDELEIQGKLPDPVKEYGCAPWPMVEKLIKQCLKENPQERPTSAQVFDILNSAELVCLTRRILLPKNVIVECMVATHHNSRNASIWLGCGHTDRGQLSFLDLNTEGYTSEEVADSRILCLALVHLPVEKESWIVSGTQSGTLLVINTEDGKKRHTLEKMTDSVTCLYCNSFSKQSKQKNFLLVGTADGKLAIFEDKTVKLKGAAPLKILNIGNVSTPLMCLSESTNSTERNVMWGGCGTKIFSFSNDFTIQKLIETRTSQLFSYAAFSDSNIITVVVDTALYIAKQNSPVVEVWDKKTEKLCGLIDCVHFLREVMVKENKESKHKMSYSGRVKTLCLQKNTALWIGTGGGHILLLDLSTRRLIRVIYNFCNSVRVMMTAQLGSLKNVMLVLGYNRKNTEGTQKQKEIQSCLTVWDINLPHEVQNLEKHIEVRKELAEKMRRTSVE
# [22] = biological target: MAP3K3 (human) (UniProt Q99759)
# [23] = biological target: MAP3K8 (human) (UniProt P41279)
# [24] = biological target: MAP3K9 (human) (UniProt P80192)
# [25] = biological target: MAPK8 (human) (UniProt P45983)
# [26] = biological target: MARK1 (human) (UniProt Q9P0L2)
# [27] = biological target: MARK3 (human) (UniProt P27448)
# [28] = biological target: MATK (human) (UniProt P42679)
# [29] = biological target: MELK (human) (UniProt Q14680)
# [30] = biological target: MUSK (human) (UniProt O15146)
# [31] = biological target: NUAK1 (human) (UniProt O60285)
# [32] = biological target: PAK6 (human) (UniProt Q9NQU5)
# [33] = biological target: PAK7 (human) (UniProt Q9P286)
# [34] = biological target: PIM3 (human) (UniProt Q86V86)
# [35] = biological target: PKN1 (human) (UniProt Q16512)
# [36] = biological target: SGK3 (human) (UniProt Q96BR1)
# [37] = biological target: STK10 (human) (UniProt O94804)
# Chain of STK10 (human) (O94804 whole entry, looked up): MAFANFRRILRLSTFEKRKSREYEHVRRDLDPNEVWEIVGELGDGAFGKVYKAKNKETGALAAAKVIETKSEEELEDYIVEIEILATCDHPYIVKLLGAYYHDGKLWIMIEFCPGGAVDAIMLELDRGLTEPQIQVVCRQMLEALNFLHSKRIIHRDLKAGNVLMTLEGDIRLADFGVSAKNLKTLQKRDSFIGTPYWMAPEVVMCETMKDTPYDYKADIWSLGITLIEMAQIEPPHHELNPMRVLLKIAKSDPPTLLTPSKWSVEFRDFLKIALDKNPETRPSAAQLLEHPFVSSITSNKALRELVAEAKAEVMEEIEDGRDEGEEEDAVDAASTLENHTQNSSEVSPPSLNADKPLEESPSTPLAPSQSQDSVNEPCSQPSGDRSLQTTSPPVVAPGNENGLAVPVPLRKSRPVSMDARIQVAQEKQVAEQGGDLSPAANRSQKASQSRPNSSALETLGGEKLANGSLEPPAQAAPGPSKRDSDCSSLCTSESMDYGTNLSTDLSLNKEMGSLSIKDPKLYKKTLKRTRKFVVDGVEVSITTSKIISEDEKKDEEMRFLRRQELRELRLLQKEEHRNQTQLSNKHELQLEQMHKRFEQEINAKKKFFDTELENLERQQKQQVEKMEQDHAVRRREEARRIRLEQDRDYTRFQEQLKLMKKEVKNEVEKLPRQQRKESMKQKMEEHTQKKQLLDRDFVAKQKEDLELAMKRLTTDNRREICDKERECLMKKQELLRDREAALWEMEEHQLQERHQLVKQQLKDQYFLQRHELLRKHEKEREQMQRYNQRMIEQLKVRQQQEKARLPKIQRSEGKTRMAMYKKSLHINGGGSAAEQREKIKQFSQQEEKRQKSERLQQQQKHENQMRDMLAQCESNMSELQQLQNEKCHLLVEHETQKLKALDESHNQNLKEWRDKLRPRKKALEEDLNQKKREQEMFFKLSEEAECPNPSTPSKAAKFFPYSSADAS
# [38] = biological target: STK17A (human) (UniProt Q9UEE5)
# [39] = biological target: TGFBR1 (human) (UniProt P36897)
# Chain of TGFBR1 (human) (P36897 whole entry, looked up): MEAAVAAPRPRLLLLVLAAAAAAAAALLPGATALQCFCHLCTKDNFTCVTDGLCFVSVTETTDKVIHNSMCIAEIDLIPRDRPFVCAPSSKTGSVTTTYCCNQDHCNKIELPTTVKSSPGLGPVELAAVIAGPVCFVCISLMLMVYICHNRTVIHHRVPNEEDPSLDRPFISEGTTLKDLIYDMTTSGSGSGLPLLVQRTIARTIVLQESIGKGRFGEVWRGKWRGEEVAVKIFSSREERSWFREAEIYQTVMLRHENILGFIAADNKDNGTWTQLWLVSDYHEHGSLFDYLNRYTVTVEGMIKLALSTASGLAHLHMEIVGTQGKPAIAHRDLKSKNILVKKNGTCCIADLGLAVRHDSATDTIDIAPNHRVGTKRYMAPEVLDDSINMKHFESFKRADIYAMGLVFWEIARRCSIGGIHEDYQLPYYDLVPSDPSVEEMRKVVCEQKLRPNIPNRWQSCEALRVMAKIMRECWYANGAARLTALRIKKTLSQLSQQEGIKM
# [40] = biological target: ULK2 (human) (UniProt Q8IYT8)
SMILES,residual activity [1],residual activity [2],residual activity [3],residual activity [4],residual activity [5],residual activity [6],residual activity [7],residual activity [8],residual activity [9],residual activity [10],residual activity [11],residual activity [12],residual activity [13],residual activity [14],residual activity [15],residual activity [16],residual activity [17],residual activity [18],residual activity [19],residual activity [20],other results
CCN(CC)C(=O)c1ccc(Nc2nc(OCC3CCCCC3)c3nc[nH]c3n2)cc1,3.03%,20.7%,105%,90.7%,76.5%,59.2%,77.2%,83.1%,102%,61.7%,106%,75.4%,93.7%,10.3%,94.1%,96.5%,92.8%,57.3%,6.39%,35.2%,residual activity [21]: 2.21%; residual activity [22]: 47.3%; residual activity [23]: 101%; residual activity [24]: 3.8%; residual activity [25]: 51.1%; residual activity [26]: 82.7%; residual activity [27]: 85.4%; residual activity [28]: 95.6%; residual activity [29]: 76.3%; residual activity [30]: 77.5%; residual activity [31]: 3.67%; residual activity [32]: 95.5%; residual activity [33]: 49.1%; residual activity [34]: 109%; residual activity [35]: 78.9%; residual activity [36]: 97.2%; residual activity [37]: 57.3%; residual activity [38]: 59.8%; residual activity [39]: 100%; residual activity [40]: 84.9%
O=c1cc(N2CCOCC2)oc2c1ccc1ccccc12,98%,107%,99.4%,87.6%,119%,96.8%,98.9%,101%,97.9%,98.1%,110%,104%,85%,104%,85.6%,101%,92.3%,100%,103%,98%,residual activity [21]: 96.9%; residual activity [22]: 102%; residual activity [23]: 98.3%; residual activity [24]: 111%; residual activity [25]: 97.2%; residual activity [26]: 99.5%; residual activity [27]: 110%; residual activity [28]: 90.7%; residual activity [29]: 103%; residual activity [30]: 75.6%; residual activity [31]: 90.1%; residual activity [32]: 92%; residual activity [33]: 108%; residual activity [34]: 95.4%; residual activity [35]: 106%; residual activity [36]: 106%; residual activity [37]: 96.9%; residual activity [38]: 94.6%; residual activity [39]: 98.5%; residual activity [40]: 94.9%
Cc1ccc(S(=O)(=O)/C=C/C#N)cc1,111%,97.1%,103%,96.4%,89.2%,100%,86.8%,97.2%,103%,88.3%,97.8%,100%,104%,100%,101%,108%,108%,102%,101%,97.1%,residual activity [21]: 115%; residual activity [22]: 98.1%; residual activity [23]: 96.2%; residual activity [24]: 96.9%; residual activity [25]: 74.7%; residual activity [26]: 102%; residual activity [27]: 100%; residual activity [28]: 101%; residual activity [29]: 92%; residual activity [30]: 107%; residual activity [31]: 101%; residual activity [32]: 107%; residual activity [33]: 100%; residual activity [34]: 93.6%; residual activity [35]: 92.1%; residual activity [36]: 108%; residual activity [37]: 90.6%; residual activity [38]: 97.8%; residual activity [39]: 103%; residual activity [40]: 110%
COc1ccc2c(c[n+](C)c3c4cc5c(cc4ccc23)OCO5)c1OC,107%,93.5%,99.5%,84.8%,88.9%,98.8%,86.2%,106%,92.9%,92.5%,86.4%,90.4%,97.1%,76.9%,98.8%,95.9%,94.9%,99.2%,101%,109%,residual activity [21]: 104%; residual activity [22]: 101%; residual activity [23]: 91.3%; residual activity [24]: 98.1%; residual activity [25]: 89.8%; residual activity [26]: 91.4%; residual activity [27]: 98.7%; residual activity [28]: 89.5%; residual activity [29]: 89.6%; residual activity [30]: 98.2%; residual activity [31]: 96.6%; residual activity [32]: 96.1%; residual activity [33]: 77.4%; residual activity [34]: 99.6%; residual activity [35]: 101%; residual activity [36]: 96%; residual activity [37]: 92.7%; residual activity [38]: 104%; residual activity [39]: 98.5%; residual activity [40]: 92%
Nc1ccc2ncnc(NCCc3ccc(Oc4ccccc4)cc3)c2c1,105%,96%,71.3%,102%,95%,109%,90.6%,96.7%,100%,96.8%,101%,97.9%,97.7%,103%,96.9%,97.4%,103%,104%,96.9%,101%,residual activity [21]: 98.5%; residual activity [22]: 106%; residual activity [23]: 97.2%; residual activity [24]: 103%; residual activity [25]: 104%; residual activity [26]: 103%; residual activity [27]: 86.4%; residual activity [28]: 89.6%; residual activity [29]: 96.8%; residual activity [30]: 102%; residual activity [31]: 94.7%; residual activity [32]: 105%; residual activity [33]: 106%; residual activity [34]: 104%; residual activity [35]: 105%; residual activity [36]: 106%; residual activity [37]: 90.8%; residual activity [38]: 96.9%; residual activity [39]: 97.7%; residual activity [40]: 103%
